According to patent US8332025B2, “Method and system for detecting electrophysiological changes in pre-cancerous and cancerous tissue and epithelium” (Epi-Sci, LLC, priority 2005, dated 2012):
Like-named read-outs stand apart in the source and are kept apart here.

How the values were obtained:
distal colon = assay: Transepithelial potential (VT) of colon during treatment; type: in vivo, CF1 mice; conditions: administered over the same period (four weeks)
colonocyte cell membrane = conditions: cited from earlier work
[1] = tested on: apical K+ channels of human colonic mucosa; assay: Short circuit current of human colonic epithelium ex-vivo (FIG. 12); conditions: 30 mM mucosal; normal colon; 0.1 mM amiloride; elevated serosal K+
Protocol: The potassium permeability of the apical membrane of human colonic mucosa (P^Ka) was determined in surgical specimens of controls and grossly normal-appearing mucosa obtained 10-30 cm proximal to colorectal adenocarcinomas. The mucosa was, mounted in Using chambers and the basolateral, membrane resistance and voltage were nullified by elevating the K^+ in the serosal bathing solution. The apical sodium (Na^+) conductance was blocked with 0.1 mM amiloride. This protocol reduces the equivalent circuit model of the epithelium to an apical membrane conductance and electromotive force in parallel with the paracellular pathway as has been verified by microelectrode studies. […] In cancer-bearing colon the reduction in Isc is to −65 μA/cm^2. The serosal bath was remained constant at 125 mM [K].

breast epithelium = conditions: 20 μM luminal, cited from earlier work
[2] = tested on: benign breast epithelial cells; assay: Cell membrane potential, potentiometric fluorescent probe (FIG. 7), benign cells; type: cell-based, human; conditions: estradiol added to the culture media; approximately −50 mV in its absence
Protocol: (§1) Measurements were made using a potentiometric fluorescent probe, and ratiometric measurements, which are calibrated using valinomycin and [K^+]-gradients. Ψs were measured in the presence (closed circles) and absence (open circles) of estradiol (the active, metabolite of estrogen). Each symbol is the mean measurement. The upper error bar is the standard error of the mean, and the lower error bar is the 95% confidence level for the observations. The addition of estrogen to cultured breast epithelial cells results in an instantaneous increase in Ψ (data not shown) as well as the transepithelial potential see. FIG. 8. Transepithelial potential (VT) of an epithelium is the sum of the apical (luminal) cell membrane potential (VA) and the basolateral (abluminal) cell membrane potential (VBL). Therefore VT=VA+VBL (changes in VA and/or VBL will therefore alter VT or transepithelial potential). […] Malignant and transformed cells have a Ψ of between −31 and −35 mV in the absence of estradiol and approximately 50 mV when estradiol is present in the culture medium.

[3] = tested on: Malignant and transformed cells; assay: Cell membrane potential, potentiometric fluorescent probe (FIG. 7), malignant and transformed cells; type: cell-based, human; conditions: estradiol present in the culture medium; −31 to −35 mV in its absence
Protocol: as §1

[4] = tested on: malignant human breast epithelial cells; assay: Transepithelial potential of monolayers in Ussing chambers (FIG. 8), malignant epithelia; type: cell-based
Protocol: (§2) It should be noted, that the instantaneous response, illustrated in FIG. 8, is greater in malignant epithelia, whereas the chronic or sustained exposure to estradiol results in a lower increase in TEP (transepithelial, electropotential) in malignant cells. Concurrent measurement of surface electropotential and impedance allow the more accurate diagnosis of cancer. […] The cells were grown, as monolayers on Millipore filters and grew to confluence in 7 to 10 days. The epithelia were then mounted in modified Using chambers and the TEP was measured using a voltage clamp. Increasing doses of estradiol between 0 and 0.8 μM were added (x-axis). The transepithelial potential was measured after each addition and the TEP was measured (y-axis). The different dose response is apparent for benign and malignant epithelia. Malignant epithelia have a lower TEP but undergo an instantaneous increase in TEP of approximately 9 mV (becomes more electronegative and reaches a level of <−6 mV) after exposure to only 0.1 μM estradiol and then depolarize to approximately −2 mV with increasing doses of estradiol up to about 0.5 μM. […] 0.3 μM and then remain persistently elevated (higher electro negativity), unlike the malignant epithelia, with increasing doses of estradiol.

[5] = tested on: benign human breast epithelial cells; assay: Transepithelial potential of monolayers in Ussing chambers (FIG. 8), benign epithelia; type: cell-based; conditions: increasing doses 0 to 0.8 μM
Protocol: as §2

## O=c1[nH]cc(F)c(=O)[nH]1 [5-fluorouracil]
Distal colon
  effect on transepithelial potential (VT): did not cause a reduction in VT

## CNNC [DMH, 1,2 dimethylhydrazine]
Colonocyte cell membrane; after 6 weeks of treatment, from −74.9 mV
  VA (apical membrane voltage): −61.4 mV
Colonocyte cell membrane; by 20 weeks of treatment
  VA (apical membrane voltage): −34 mV

## CC[N+](CC)(CC)CC [TEA]
[1]
  effect on short circuit current (Isc): abrupt increase in Isc

## N=C(N)NC(=O)c1nc(Cl)c(N)nc1N [amiloride]
Breast epithelium
  increase in transepithelial resistance: 17%
Breast epithelium; from −5.9±0.5 mV, mean±SEM
  depolarization of the transepithelial potential (change): +3.1±0.5 mV

## C[C@]12CC[C@@H]3c4ccc(O)cc4CC[C@H]3[C@@H]1CC[C@@H]2O [estradiol, 17-β-estradiol]
[2]
  cell membrane potential (Ψ): ~−70 mV
[3]
  cell membrane potential (Ψ): approximately 50 mV
[4]; 0.1 μM
  TEP level reached: < −6 mV
  instantaneous increase in TEP: approximately 9 mV
[4]; up to about 0.5 μM
  TEP after depolarization with increasing doses: approximately −2 mV
[5]
  dose at which the TEP response peaks: ~0.3 µM
